Laboratory results reported in publication PMC7156724, “Potent BRD4 inhibitor suppresses cancer cell-macrophage interaction” (Nature Communications, 2020).
“And” between values parts separate entries of the source, which are not always exact repeats. Equal values may be shown once.

What was measured:
[1] = system: TMD8 large B cell lymphoma; experiment: TMD8 large B cell lymphoma model tumor growth; format: in vivo, mouse; settings: for Tumor volume: n=6, individual animals
Text: (§1) PO, oral administration; QD, once daily; BID, twice daily. b–d Tumor growth curves for A2780 ovarian tumor (n = 5) (b), TMD8 large B cell lymphoma (n = 6) (c), and B16F10 melanoma (n = 5) (d) bearing mice treated with the indicated compounds once daily for 11-21 days. e, f Tumor growth curves for A375 melanoma (n = 6) (e), and patient-derived xenograft (PDX) of melanoma (n = 5) (f) bearing mice treated with the indicated compounds once daily (5 days on, 2 days off) for 21 days. For d–f, NHWD-870 used is NHWD-870-HCl synthesized using Suzuki coupling route. Data are presented as mean ± SEM in (a, b, d, f) and mean + SEM in (c, e). p values were calculated using two-tailed, unpaired t tests. *p < 0.05; **p < 0.01; ***p < 0.001. Source data are provided as a Source Data file.
(§2) 4–6 weeks old female BALB/c nude mice were used for most experiments, with the exception of 6–8 weeks old female C57BL/6 mice were used for B16F10 experiments, and 6–8 weeks old male BALB/c nude mice and SD rats were used for pharmacokinetic experiments. All animals were purchased from Shanghai SIPPR-Bk Lab Animal Co., Ltd. All animals were housed under a regimen of 12 h light/12 h dark cycles and specific pathogen-free conditions. 5×10^6 NCI-H526, ES-2, MDA-MB231, A2780, A375, B16F10, and TMD-8 cells (0.1 ml) were injected subcutaneously into female nude mice. The melanoma patient-derived xenograft model was derived from a human melanoma sample (BRAF, NARS and NF1 wild type, and p53 mutant) removed from a patient in Xiangya Hospital. Surgically removed tumor fragments were implanted subcutaneously into female NSG mice. When the tumors grew to ~1000 mm^3, they were harvested and cryopreserved or immediately re-implanted for expansion or experiments. Mouse body weight and tumor sizes were measured every 3 days. Once the tumors grew to 150–200 mm^3, mice were treated with the compounds as described in the Figures. 1 × 10^6 A2780 cells (1 ml) were injected into the abdominal cavity of nude mice. Ascitic volume and tumor weight were measured by an electronic balance. All the procedures were evaluated and approved by the Institutional Animal Care and Use Committee of Central South University and Yale University.

H526 SCLC tumors = experiment: H526 SCLC xenograft tumor growth; format: in vivo, mouse; settings: for Tumor volume: Fig.3a, n=6, individual animals
Text: as §1, §2

MDA-MB231 cells = experiment: Clonogenic (colony formation) assay, MDA-MB231; format: cell-based, human; settings: MDA-MB231, 250 nM, 5 days
Experimental: Fig. 2 NHWD-870 inhibited BRD4 phosphorylation and c-MYC expression, and suppressed cell growth. a Representative western blot analysis of p-BRD4 (s484/488), BRD4, c-MYC, and GAPDH after treatment of MDA-MB231, SUM159, A2780 ES-2, and H526 cells with JQ-1 or NHWD-870 at the indicated concentrations for 24 h. GAPDH served as the loading control. Selected from three independent experiments. b MTT assays of H526, A2780, ES-2, and MDA-MB231 cells treated with JQ-1 or NHWD-870 at the indicated concentrations for 5 days. Data are presented as mean ± SEM from three independent experiments. c, d Clonogenic assays of H526, A2780, ES-2 and MDA-MB231 cells treated with 250 nM JQ-1 or NHWD-870 for 5 days. Shown are representative images (c) and quantification of colonies (d). […] Shown are representative images (e) and quantification of relative colony sizes (f). Scale bar, 50 μm. Data are presented as mean ± SEM from five independent experiments. p values were calculated using two-tailed, unpaired t tests in this figure. **p < 0.01; ***p < 0.001. Source data are provided as a Source Data file. […]
5. Colony formation assay. Cells were seeded in 6-well plates at 3,000 cells/well […]
every week. […] Colony numbers were calculated with imageJ version

Which results are given for `Cc1nnn(C)c1-c1cnc2c3c4cnn(C)c4ccc3n([C@H](c3ccccc3)C3CCOCC3)c2c1` [NHWD-870]?
Tumor volume ([1]; Fig.3c TMD-8, 1.5mg/kg p.o. QD x 21D, day 0): 214.469 mm^3 and 165.444 mm^3 and 94.318 mm^3 and 104.496 mm^3 and 146.158 mm^3 and 140.975 mm^3; Tumor volume ([1]; Fig.3c TMD-8, 1.5mg/kg p.o. QD x 21D, day 3): 338.876 mm^3 and 252.047 mm^3 and 100.523 mm^3 and 149.534 mm^3 and 223.518 mm^3 and 132.449 mm^3; Tumor volume ([1]; Fig.3c TMD-8, 1.5mg/kg p.o. QD x 21D, day 7): 459.258 mm^3 and 449.651 mm^3 and 146.864 mm^3 and 132.276 mm^3 and 263.192 mm^3 and 174.278 mm^3; Tumor volume ([1]; Fig.3c TMD-8, 1.5mg/kg p.o. QD x 21D, day 10): 490.697 mm^3 and 432.678 mm^3 and 235.012 mm^3 and 190.412 mm^3 and 150.967 mm^3 and 163.029 mm^3; Tumor volume ([1]; Fig.3c TMD-8, 1.5mg/kg p.o. QD x 21D, day 14): 640.246 mm^3 and 434.37 mm^3 and 213.016 mm^3 and 174.551 mm^3 and 71.2181 mm^3 and 175.498 mm^3; Tumor volume ([1]; Fig.3c TMD-8, 1.5mg/kg p.o. QD x 21D, day 17): 730.308 mm^3 and 597.229 mm^3 and 374.112 mm^3 and 196.792 mm^3 and 127.555 mm^3 and 127.945 mm^3; Tumor volume ([1]; Fig.3c TMD-8, 1.5mg/kg p.o. QD x 21D, day 21): 1151.12 mm^3 and 1193.19 mm^3 and 830.854 mm^3 and 339.119 mm^3 and 375.477 mm^3 and 217.147 mm^3; Tumor volume ([1]; Fig.3c TMD-8, 3mg/kg p.o. QD x 21D, day 0): 135.749 mm^3 and 160.378 mm^3 and 111.097 mm^3 and 215.602 mm^3 and 96.5 mm^3 and 162.39 mm^3; Tumor volume ([1]; Fig.3c TMD-8, 3mg/kg p.o. QD x 21D, day 3): 210.016 mm^3 and 166.954 mm^3 and 177.118 mm^3 and 367.777 mm^3 and 150.727 mm^3 and 208.299 mm^3; Tumor volume ([1]; Fig.3c TMD-8, 3mg/kg p.o. QD x 21D, day 7): 347.833 mm^3 and 254.452 mm^3 and 292.586 mm^3 and 297.998 mm^3 and 182.149 mm^3 and 258.854 mm^3; Tumor volume ([1]; Fig.3c TMD-8, 3mg/kg p.o. QD x 21D, day 10): 278.167 mm^3 and 325.57 mm^3 and 336.135 mm^3 and 344.695 mm^3 and 159.095 mm^3 and 292.996 mm^3; Tumor volume ([1]; Fig.3c TMD-8, 3mg/kg p.o. QD x 21D, day 14): 177.492 mm^3 and 209.22 mm^3 and 327.654 mm^3 and 243.833 mm^3 and 100.203 mm^3 and 228.258 mm^3; Tumor volume ([1]; Fig.3c TMD-8, 3mg/kg p.o. QD x 21D, day 17): 203.37 mm^3 and 180.739 mm^3 and 317.134 mm^3 and 320.512 mm^3 and 84.6294 mm^3 and 268.501 mm^3; Tumor volume ([1]; Fig.3c TMD-8, 3mg/kg p.o. QD x 21D, day 21): 566.866 mm^3 and 363.185 mm^3 and 475.409 mm^3 and 503.514 mm^3 and 313.1 mm^3 and 324.211 mm^3; effect on tumor growth ([1]; TMD8 large B cell lymphoma model, compared with Ibrutinib): stronger tumor-suppressive effects; Tumor volume (H526 SCLC tumors; 0.75mg/kg p.o. QD x 21D, day 0): 192.244 mm^3 and 263.88 mm^3 and 212.226 mm^3 and 157.172 mm^3 and 251.256 mm^3 and 74.1662 mm^3; Tumor volume (H526 SCLC tumors; 0.75mg/kg p.o. QD x 21D, day 3): 395.966 mm^3 and 556.678 mm^3 and 654.987 mm^3 and 201.421 mm^3 and 423.505 mm^3 and 90.8277 mm^3; Tumor volume (H526 SCLC tumors; 0.75mg/kg p.o. QD x 21D, day 7): 723.612 mm^3 and 1124.37 mm^3 and 964.914 mm^3 and 402.947 mm^3 and 655.847 mm^3 and 216.235 mm^3; Tumor volume (H526 SCLC tumors; 0.75mg/kg p.o. QD x 21D, day 10): 1123.82 mm^3 and 1337.09 mm^3 and 1219.11 mm^3 and 614.795 mm^3 and 939.345 mm^3 and 324.637 mm^3; Tumor volume (H526 SCLC tumors; 0.75mg/kg p.o. QD x 21D, day 14): 1169.07 mm^3 and 1508.45 mm^3 and 1544.25 mm^3 and 755.744 mm^3 and 1018.31 mm^3 and 369.016 mm^3; Tumor volume (H526 SCLC tumors; 0.75mg/kg p.o. QD x 21D, day 17): 1563.43 mm^3 and 1842.12 mm^3 and 2108.97 mm^3 and 937.093 mm^3 and 1199.84 mm^3 and 528.17 mm^3; Tumor volume (H526 SCLC tumors; 0.75mg/kg p.o. QD x 21D, day 20): 1882.72 mm^3 and 1980.4 mm^3 and 2365.8 mm^3 and 1110.57 mm^3 and 1230.51 mm^3 and 727.098 mm^3; Tumor volume (H526 SCLC tumors; 1.5mg/kg p.o. BID x 21D, day 0): 109.221 mm^3 and 224.83 mm^3 and 299.894 mm^3; Tumor volume (H526 SCLC tumors; 1.5mg/kg p.o. BID x 21D, day 3): 144.898 mm^3 and 505.755 mm^3; Tumor volume (H526 SCLC tumors; 1.5mg/kg p.o. BID x 21D, day 7): 197.484 mm^3 and 503.899 mm^3; Tumor volume (H526 SCLC tumors; 1.5mg/kg p.o. BID x 21D, day 10): 131.255 mm^3 and 391.019 mm^3; Tumor volume (H526 SCLC tumors; 1.5mg/kg p.o. BID x 21D, day 14): 62.3145 mm^3 and 300.826 mm^3; Tumor volume (H526 SCLC tumors; 1.5mg/kg p.o. BID x 21D, day 17): 47.429 mm^3 and 191.773 mm^3; Tumor volume (H526 SCLC tumors; 1.5mg/kg p.o. BID x 21D, day 20): 26.6114 mm^3 and 100.415 mm^3 and 135.956 mm^3; Tumor volume (H526 SCLC tumors; 1.5mg/kg p.o. QD x 21D, day 0): 70.0321 mm^3 and 190.911 mm^3 and 142.166 mm^3 and 225.589 mm^3 and 289.503 mm^3 and 248.923 mm^3; Tumor volume (H526 SCLC tumors; 1.5mg/kg p.o. QD x 21D, day 3): 54.6804 mm^3 and 344.715 mm^3 and 214.258 mm^3 and 388.716 mm^3 and 680.326 mm^3 and 337.153 mm^3; Tumor volume (H526 SCLC tumors; 1.5mg/kg p.o. QD x 21D, day 7): 52.3406 mm^3 and 448.169 mm^3 and 304.6 mm^3 and 593.496 mm^3 and 1004.88 mm^3 and 603.12 mm^3; Tumor volume (H526 SCLC tumors; 1.5mg/kg p.o. QD x 21D, day 10): 65.7752 mm^3 and 568.076 mm^3 and 360.126 mm^3 and 706.593 mm^3 and 1344.39 mm^3 and 669.797 mm^3; Tumor volume (H526 SCLC tumors; 1.5mg/kg p.o. QD x 21D, day 14): 53.8674 mm^3 and 610.408 mm^3 and 386.917 mm^3 and 812.577 mm^3 and 1371.12 mm^3 and 772.943 mm^3; Tumor volume (H526 SCLC tumors; 1.5mg/kg p.o. QD x 21D, day 17): 48.5889 mm^3 and 810.7 mm^3 and 443.445 mm^3 and 889.286 mm^3 and 1654.72 mm^3 and 1027.16 mm^3; Tumor volume (H526 SCLC tumors; 1.5mg/kg p.o. QD x 21D, day 20): 34.4047 mm^3 and 640.677 mm^3 and 402.424 mm^3 and 852.013 mm^3 and 1472.9 mm^3 and 894.82 mm^3; effect on tumor growth (H526 SCLC tumors; H526 SCLC, oral, 3 mg/kg per day or 1.5 mg/kg twice per day, 21 days): regressed established H526 SCLC tumors; Clone Number (clonogenic assay) (MDA-MB231 cells): 571 and 603 and 635 and 542 and 519
